Columns and labels:
Type in all cases: cell-based
SMN2 CJ mRNA = assay: Gene panel canonical junction qPCR assay: SMN2; conditions: Table 3, concentration having 50% response in CJ decrease, read-out: SMN2 IC50 (decrease in CJ mRNA levels)
Protocol: (§1) Compounds described herein were used to modulate RNA transcript abundance in cells. The expression of a target mRNA was measured by detecting the formation of an exon-exon junction in the canonical transcript (CJ). A compound mediated exon-inclusion event was detected by observing an increase in formation of a new junction with an alternative exon (AJ). Real-time qPCR assays were used to detect these splicing switches and interrogate the potency of various compounds towards different target genes. A high-throughput real time quantitative PCR (RT-qPCR) assay was developed to measure these two isoforms of the mRNA (CJ and AJ) for an exemplary gene, HTT, together with a control housekeeping gene, GAPDH or GUSB or PPIA, used for normalization. Briefly, the A673 or K562 cell line was treated with various compounds described herein (e.g., compounds of Formula (I)). After treatment, the levels of the HTT mRNA targets were determined from each sample of cell lysate by cDNA synthesis followed by qPCR.
(§2) The A673 cell line was cultured in DMEM with 10% FBS. Cells were diluted with full growth media and plated in a 96-well plate (15,000 cells in 100 ul media per well). The plate was incubated at 37° C. with 5% CO2 for 24 hours to allow cells to adhere. An 11-point 3-fold serial dilution of the compounds was made in DMSO then diluted in media in an intermediate plate. Compounds were transferred from the intermediate plate to the cell plate with the top dose at a final concentration of 10 uM in the well. Final DMSO concentration was kept at or below 0.25%. The cell plate was returned to the incubator at 37° C. with 5% CO2 for an additional 24 hours.
(§3) The K562 cell line was cultured in IMDM with 10% FBS. For K562, cells were diluted with full growth media and plated in either a 96-well plate (50,000 cells in 50 uL media per well) or a 384-well plate (8,000-40,000 cells in 45 uL media per well). An 11-point 3-fold serial dilution of the compounds were made in DMSO then diluted in media in an intermediate plate. Compound was transferred from the intermediate plate to the cell plate with the top dose at a final concentration of 10 uM in the well. Final DMSO concentration was kept at or below 0.25%. Final volume was 100 uL for 96-well plate and 50 uL for 384-well plate. The cell plate was then placed in an incubator at 37° C. with 5% CO2 for 24 hours.
(§4) The cells were then gently washed with 50 uL-100 uL cold PBS before proceeding to addition of lysis buffer. 30 uL-50 uL of room temperature lysis buffer with DNAse I (and optionally RNAsin) was added to each well. Cells were shaken/mixed thoroughly at room temperature for 5-10 minutes for lysis to take place and then 3 uL-5 uL of room temperature stop solution was added and wells were shaken/mixed again. After 2-5 minutes, the cell lysate plate was transferred to ice for RT-qPCR reaction setup. The lysates could also be frozen at −80° C. for later use.
(§5) In some cases, a direct lysis buffer was used. An appropriate volume of 3× lysis buffer (10 mM Tris, 150 mM NaCl, 1.5%-2.5% Igepal and 0.1-1 U/uL RNAsin, pH 7.4) was directly added to either K562 or A673 cells in media and mixed by pipetting 3 times. The plates were then incubated at room temperature with shaking/rocking for 20-50 minutes to allow for lysis to take place. After this time, the cell lysate plate was transferred to ice to set up for the RT-qPCR reactions. The lysates could also be frozen at −80° C. for later use.
(§6) To set up 10 uL RT-qPCR reactions, cell lysates were transferred to 384-well qPCR plates containing the master mix according to the table below. The plates were sealed, gently vortexed, and spun down before the run. The volumes were adjusted accordingly in some instances where the reaction was carried in 20 uL. The table below summarizes the components of the RT-qPCR reactions:
(§7) The RT-qPCR reaction was performed using a QuantStudio (ThermoFisher) under the following fast cycling conditions. […]

HTT AJ mRNA = assay: Splicing assay (RT-qPCR): increase in HTT alternative junction (AJ) mRNA; conditions: A673 or K562 cells, 24 hours treatment; concentration having 50% response in AJ mRNA increase
Protocol: as §1, §2, §3, §4, §5, §6, §7

HTT CJ mRNA [1] = assay: Gene panel canonical junction qPCR assay: HTT; conditions: Table 3, concentration having 50% response in CJ decrease, read-out: HTT IC50 (decrease in CJ mRNA levels)
Protocol: as §1, §2, §3, §4, §5, §6, §7

HTT CJ mRNA [2] = assay: Splicing assay (RT-qPCR): decrease in HTT canonical junction (CJ) mRNA; conditions: A673 or K562 cells, 24 hours treatment; concentration having 50% response in CJ mRNA decrease
Protocol: as §1, §2, §3, §4, §5, §6, §7

Target C CJ mRNA = assay: Gene panel canonical junction qPCR assay: Target C; conditions: Table 3, concentration having 50% response in CJ decrease, read-out: Target C IC50 (decrease in CJ mRNA levels)
Protocol: as §1, §2, §3, §4, §5, §6, §7

Row | Compound | IC50 (SMN2 CJ mRNA) [µM] | IC50 (HTT CJ mRNA [1]) [µM] | IC50 (Target C CJ mRNA) [µM] | AC50 (HTT AJ mRNA) [µM] | AC50 (HTT CJ mRNA [2]) [µM]
1 | Cc1cn2cc(NC(=O)c3sc(N4CCN(C)C(C)C4)cc3F)cc(F)c2n1 (stereo not shown) [Compound 129, 5-(3,4-dimethylpiperazin-1-yl)-3-fluoro-N-[8-fluoro-2-methylimidazo[1,2-a]pyridin-6-yl]thiophene-2-carboxamide] | 1 to 10 | > 0.01 | > 0.01 | > 10 | > 10
2 | Cc1cn2cc(NC(=O)c3sc(N4CCNC5(CC5)C4)cc3F)cc(F)c2n1 [Compound 132, 5-[4,7-diazaspiro[2.5]octan-7-yl]-3-fluoro-N-[8-fluoro-2-methylimidazo[1,2-a]pyridin-6-yl]thiophene-2-carboxamide] | 1 to 10 | > 0.01 | > 0.01 | > 10 | > 10
3 | Cc1cn2cc(NC(=O)c3sc(N4CC(C)(C)NC(C)(C)C4)cc3F)cc(F)c2n1 [Compound 133, 3-fluoro-N-[8-fluoro-2-methylimidazo[1,2-a]pyridin-6-yl]-5-(3,3,5,5-tetramethylpiperazin-1-yl)thiophene-2-carboxamide] | 1 to 10 | > 0.01 | > 0.01 | > 10 | > 10
4 | Cc1cn2cc(NC(=O)c3sc(N4CCC(NC(C)(C)C)C4)cc3F)cc(F)c2n1 (stereo not shown) [Compound 137, 5-[3-(tert-butylamino)pyrrolidin-1-yl]-3-fluoro-N-[8-fluoro-2-methylimidazo[1,2-a]pyridin-6-yl]thiophene-2-carboxamide] | > 0.01 | > 0.01 | 0.1 to 1 | > 10 | > 10
5 | Cc1cn2cc(NC(=O)c3sc(N4CCN5CCCC5C4)cc3F)cc(F)c2n1 (stereo not shown) [Compound 139, 3-fluoro-N-[8-fluoro-2-methylimidazo[1,2-a]pyridin-6-yl]-5-[hexahydro-1H-pyrrolo[1,2-a]pyrazin-2-yl] thiophene-2-carboxamide] | 1 to 10 | > 0.01 | > 0.01 | > 10 | > 10
6 | Cc1cn2cc(NC(=O)c3sc(N4CCC(NC(C)(C)C)CC4)cc3F)cc(F)c2n1 [Compound 141, 5-[4-(tert-butylamino)piperidin-1-yl]-3-fluoro-N-[8-fluoro-2-methylimidazo[1,2-a]pyridin-6-yl]thiophene-2-carboxamide] | 1 to 10 | > 0.01 | > 0.01 | > 10 | > 10
7 | CCNC1CCN(c2cc(F)c(C(=O)Nc3cc(F)c4nc(C)cn4c3)s2)CC1 [Compound 142, 5-[4-(ethylamino)piperidin-1-yl]-3-fluoro-N-[8-fluoro-2-methylimidazo [1,2-a]pyridin-6-yl]thiophene-2-carboxamide] | 1 to 10 | 1 to 10 | 1 to 10 | 1 to 10 | 1 to 10
8 | Cc1cn2cc(NC(=O)c3sc(N4C[C@H]5CC[C@@H](C4)N5)cc3F)cc(F)c2n1 [Compound 143, 5-[(1R,5S)-3,8-diazabicyclo[3.2.1]octan-3-yl]-3-fluoro-N-[8-fluoro-2-methylimidazo[1,2-a]pyridin-6-yl]thiophene-2-carboxamide] | 1 to 10 | > 0.01 | 1 to 10 | > 10 | > 10
9 | Cc1cn2cc(NC(=O)c3sc(N(C)C4CC(C)(C)NC(C)(C)C4)cc3F)cc(F)c2n1 [Compound 149, 3-fluoro-N-[8-fluoro-2-methylimidazo[1,2-a]pyridin-6-yl]-5-[methyl(2,2,6,6-tetramethylpiperidin-4-yl)amino]thiophene-2-carboxamide] | 0.1 to 1 | > 0.01 | > 0.01 | > 10 | > 10

Now from value to compound, other results behind:

Row | IC50 (SMN2 CJ mRNA) [µM] | IC50 (HTT CJ mRNA [1]) [µM] | IC50 (Target C CJ mRNA) [µM] | Compound | AC50 (HTT AJ mRNA) [µM] | AC50 (HTT CJ mRNA [2]) [µM]
10 | 0.1 to 1 | > 0.01 | < 0.1 | Cc1cn2cc(NC(=O)c3sc(N4CCN(C)CC4)cc3F)cc(F)c2n1 [Compound 127, 3-fluoro-N-[8-fluoro-2-methylimidazo [1,2-a]pyridin-6-yl]-5-(4-methylpiperazin-1-yl) thiophene-2-carboxamide] | > 10 | > 10
11 | 0.1 to 1 | 1 to 10 | > 0.01 | Cc1cn2cc(NC(=O)c3sc(N4CCNC(C)(C)C4)cc3F)cc(F)c2n1 [Compound 131, 5-(3,3-dimethylpiperazin-1-yl)-3-fluoro-N-[8-fluoro-2-methylimidazo[1,2-a]pyridin-6-yl] thiophene-2-carboxamide] | 1 to 10 | 1 to 10
12 | 0.1 to 1 | 1 to 10 | 1 to 10 | Cc1cn2cc(NC(=O)c3sc(N4CC5(CNC5)C4)cc3F)cc(F)c2n1 [Compound 134, 5-[2,6-diazaspiro[3.3]heptan-2-yl]-3-fluoro-N-[8-fluoro-2-methylimidazo[1,2-a]pyridine-6-yl]thiophene-2-carboxamide] | 1 to 10 | 1 to 10
13 | 0.1 to 1 | > 0.01 | > 0.01 | Cc1cn2cc(NC(=O)c3sc(N4CCC(N5CCCC5)C4)cc3F)cc(F)c2n1 (stereo not shown) [Compound 136, 5-[[1,3′-bipyrrolidin]-1′-yl]-3-fluoro-N-[8-fluoro-2-methylimidazo[1,2-a]pyridin-6-yl]thiophene-2-carboxamide] | > 10 | > 10
14 | 0.1 to 1 | 1 to 10 | > 0.01 | Cc1cn2cc(NC(=O)c3sc(N4CCC(N(C)C)C4)cc3F)cc(F)c2n1 (stereo not shown) [Compound 138, 5-[3-(dimethylamino)pyrrolidin-1-yl]-3-fluoro-N-[8-fluoro-2-methylimidazo[1,2-a]pyridin-6-yl]thiophene-2-carboxamide] | > 10 | 1 to 10
15 | 0.1 to 1 | 1 to 10 | 1 to 10 | Cc1cn2cc(NC(=O)c3sc(C4CCN(C)CC4)cc3F)cc(F)c2n1 [Compound 145, 3-fluoro-N-[8-fluoro-2-methylimidazo [1,2-a]pyridin-6-yl]-5-(1-methylpiperidin-4-yl)thiophene-2-carboxamide] | 1 to 10 | 1 to 10
16 | 0.1 to 1 | 1 to 10 | < 0.1 | CCN1CCC(c2cc(F)c(C(=O)Nc3cc(F)c4nc(C)cn4c3)s2)CC1 [Compound 146, 5-(1-ethylpiperidin-4-yl)-3-fluoro-N-[8-fluoro-2-methylimidazo[1,2-a]pyridin-6-yl]thiophene-2-carboxamide] | 1 to 10 | 1 to 10
17 | < 0.1 | 0.1 to 1 | 1 to 10 | Cc1cn2cc(NC(=O)c3sc(C4C[C@@H](C)N[C@@H](C)C4)cc3F)cc(F)c2n1 (stereo partly drawn) [Compound 147, 5-[(2R,6S)-2,6-dimethylpiperidin-4-yl]-3-fluoro-N-[8-fluoro-2-methylimidazo[1,2-a]pyridin-6-yl]thiophene-2-carboxamide] | 1 to 10 | 0.1 to 1

Reference: US20230142338A1, “THIOPHENYL DERIVATIVES USEFUL FOR MODULATING NUCLEIC ACID SPLICING” (REMIX THERAPEUTICS INC., priority 2020, published 2023)
